This is an account of results in PMC11775389, “Catalytic mechanism underlying the regiospecificity of coumarin-substrate transmembrane prenyltransferases in Apiaceae” (Plant and Cell Physiology, 2024).

For one data set, the system named is AgPT1. As to conditions: read-out: apparent Km, divalent cation.
In another data set the target is T1, PsPT1 (Pastinaca sativa, UniProt A0A0U1ZEE9).
T1 construct: gene PT1; full CDS (with transit peptide) in pGWB502; transient expression in Nicotiana benthamiana leaves, microsomes
Kind of data set: UHPLC of prenylated product, microsomes. Type of data set: biochemical. As to conditions: C6 product (demethylsuberosin); DMAPP co-substrate, Mg2+, 28 °C; read-out: Demethylsuberosin / (C6-position product) / Umbelliferone. The text has this:
(§1) UHPLC of prenylated product, microsomes on PsPT1

Data set [1] relates to CC(C)=CCOP(=O)(O)OP(=O)(O)O. Description: UHPLC of prenylated product, microsomes. The data set is classed as biochemical, Pastinaca sativa. Conditions: C6 product (demethylsuberosin), umbelliferone co-substrate, Mg2+, 28 °C.
Description: as §1

The subject of another data set is O=c1ccc2ccc(O)cc2o1. Description: UHPLC of prenylated product, microsomes. Type of data set: biochemical, Pastinaca sativa. Conditions: D2P8 (T/A), C6 product (demethylsuberosin), DMAPP co-substrate, Mg2+, 28 °C.
Description: as §1

Read-outs that look alike come from different tables or passages of the source.

Turning to `CC(C)=CCOP(=O)(O)OP(=O)(O)O` [DMAPP], the Km in the data set on AgPT1 (umbelliferone co-substrate) was found to be 10 ± 3 µM. Turning to `O=c1ccc2ccc(O)cc2o1` [umbelliferone], the Km in the data set with AgPT1 (DMAPP co-substrate) is 40 ± 20 µM; on PsPT1, 2.7 ± 0.6 µM. PsPT1 (Pastinaca sativa): in data set [1], the Km was found to be 5 ± 1 µM. Take PsPT1 (Pastinaca sativa; T161A): the Km in the data set on O=c1ccc2ccc(O)cc2o1 amounted to 47 ± 7 µM; in data set [1] (D2P8 (T/A)), 4.4 ± 0.8 µM.
